In patent US20260226068A1, “IMIDAZOTRIAZINE IL-17A MODULATORS AND USES THEREOF” (DICE ALPHA, INC., priority 2023, published 2026):

Assays:
IL-17A/A = biological target: T1, IL-17A/A (Homo sapiens, UniProt Q16552); assay: IL-17A/A HEK-Blue cell assay (SEAP reporter); type: cell-based; conditions: HEK-Blue IL-17A reporter cells, IL17A/A 5 ng/mL, 20 hours, SEAP read at A630; read-out: HEK-Blue IL17AA (IC50 for IL-17A/A inhibition)
T1 construct: purchased Genscript Z03228
T1 sequence (Q16552 24-155): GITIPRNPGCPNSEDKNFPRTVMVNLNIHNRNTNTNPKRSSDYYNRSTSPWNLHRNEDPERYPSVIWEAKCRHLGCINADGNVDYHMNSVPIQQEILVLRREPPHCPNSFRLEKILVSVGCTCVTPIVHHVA

IL-17A/F = biological target: T2, IL-17A/F (Homo sapiens, UniProt Q16552+Q96PD4); assay: IL-17A/F HEK-Blue cell assay (SEAP reporter); type: cell-based; conditions: HEK-Blue IL-17A reporter cells, IL17A/F 5 ng/mL, 20 hours, SEAP read at A630; read-out: HEK-Blue IL17AF (IC50 for IL-17A/F inhibition)
T2 construct: purchased R&D Systems
T2 sequence (Q16552 24-155): T1 sequence (Q16552 24-155)
T2 sequence (Q96PD4 31-163): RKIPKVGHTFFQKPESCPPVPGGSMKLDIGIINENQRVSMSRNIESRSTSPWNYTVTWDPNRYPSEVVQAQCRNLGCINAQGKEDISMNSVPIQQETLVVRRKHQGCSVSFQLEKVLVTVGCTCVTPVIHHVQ

Row | SMILES | IC50 (IL-17A/A) [nM] | IC50 (IL-17A/F) [nM]
1 | CCc1nonc1C(=O)N[C@H](c1cn2nc(C[C@H]3C[C@@H](C)CNC3=O)c(C3CCOCC3)nc2n1)C1CCC(F)(F)CC1 [Compound 393] | 100 to 1000 | > 1000
2 | CCc1nonc1C(=O)N[C@H](c1cn2nc(C[C@@H]3C[C@@H](C)CNC3=O)c(C3CCOCC3)nc2n1)C1CCC(F)(F)CC1 [Compound 394] | < 100 | > 1000
3 | CCc1nonc1C(=O)N[C@H](c1cn2nc(C[C@H]3C[C@H](C)CNC3=O)c(C3CCOCC3)nc2n1)C1CCC(F)(F)CC1 [Compound 395] | < 100 | > 1000
4 | CCc1nonc1C(=O)N[C@H](c1cn2nc(C[C@@H]3C[C@H](C)CNC3=O)c(C3CCOCC3)nc2n1)C1CCC(F)(F)CC1 [Compound 396] | < 100 | > 1000
5 | Cc1nonc1C(=O)N[C@H](c1cn2nc(C[C@@H]3C[C@@H](C)CNC3=O)c(C3CCOCC3)nc2n1)C1CCC(F)(F)CC1 [Compound 397] | < 100 | > 1000
6 | Cc1nonc1C(=O)N[C@H](c1cn2nc(C[C@H]3C[C@H](C)CNC3=O)c(C3CCOCC3)nc2n1)C1CCC(F)(F)CC1 [Compound 398] | 100 to 1000 | > 1000
7 | Cc1nonc1C(=O)N[C@H](c1cn2nc(C[C@@H]3C[C@H](C)CNC3=O)c(C3CCOCC3)nc2n1)C1CCC(F)(F)CC1 [Compound 399] | < 100 | > 1000
8 | Cn1nccc1C(=O)N[C@H](c1cn2nc(C[C@H]3C[C@@H](C(F)(F)F)CNC3=O)c(C3CCOCC3)nc2n1)C1CCCCC1 [Compound 405] | < 100 | 100 to 1000
9 | CCn1nccc1C(=O)N[C@H](c1cn2nc(C[C@H]3C[C@@H](C(F)(F)F)CNC3=O)c(CN3CCOCC3)nc2n1)C(C1CC1)C1CC1 [Compound 406, N—((S)-2,2-dicyclopropyl-1-(3-(morpholinomethyl)-2-(((3R,5R)-2-oxo-5-(trifluoromethyl)piperidin-3-yl)methyl)imidazo[1,2-b][1,2,4]triazin-6-yl)ethyl)-1-ethyl-1H-pyrazole-5-carboxamide] | < 100 | 100 to 1000
10 | Cc1nonc1C(=O)N[C@H](c1cn2nc(C[C@H]3C[C@@H](C(F)(F)F)CNC3=O)c(CN3CCOCC3)nc2n1)C1CCC(F)(F)CC1 [Compound 407] | 100 to 1000 | > 1000
11 | CCn1nccc1C(=O)N[C@H](c1cn2nc(C[C@H]3C[C@@H](C(F)(F)F)CNC3=O)c(CN3CCOCC3C)nc2n1)[C@H]1CC[C@H](C)CC1 (stereo partly drawn) [Compound 408, 1-ethyl-N-((1S)-((1r,4S)-4-methylcyclohexyl)(3-((3-methylmorpholino)methyl)-2-(((3R,5R)-2-oxo-5-(trifluoromethyl)piperidin-3-yl)methyl)imidazo[1,2-b][1,2,4]triazin-6-yl)methyl)-1H-pyrazole-5-carboxamide] | < 100 | < 100
12 | CCn1ncnc1C(=O)N[C@H](c1cn2nc(C[C@H]3C[C@@H](C(F)(F)F)CNC3=O)c(C3CCOCC3)nc2n1)C1CCCCC1 [Compound 409] | < 100 | > 1000
13 | CCn1ncnc1C(=O)N[C@H](c1cn2nc(C[C@H]3C[C@@H](C(F)(F)F)CNC3=O)c(C3CCOCC3)nc2n1)C1CCCCCC1 [Compound 410] | < 100 | 100 to 1000
14 | Cc1nonc1C(=O)N[C@H](c1cn2nc(C[C@H]3C[C@@H](C(F)(F)F)CNC3=O)c(N3CCN(C)C4(CC4)C3)nc2n1)C1CCC(F)(F)CC1 [Compound 411, N—((S)-(4,4-difluorocyclohexyl)(3-(4-methyl-4,7-diazaspiro[2.5]octan-7-yl)-2-(((3R,5R)-2-oxo-5-(trifluoromethyl)piperidin-3-yl)methyl)imidazo[1,2-b][1,2,4]triazin-6-yl)methyl)-4-methyl-1,2,5-oxadiazole-3-carboxamide] | < 100 | > 1000
